Counter-ions that a name gives are not always drawn.

Common to all, as to type: cell-based
One assay deals with HeLa cells. In words: Arresting cells in mitosis (Mitotic Index, phosphorylated Histone H3 immunofluorescence). The following applies: HeLa cell line, 24 hours; for EC50: Homo sapiens, Mitotic Index, read-out: EC50. The method, then: Assay to Measure the Effects of Compounds of the Invention on Arresting Cells in Mitosis
Inhibiting the ability of PLK1 to bind to its phosphopeptide binding partners through the PBD causes cells to arrest in mitosis. Experimentally, this is measured by assessing the number of cells which are in mitosis at a certain time after treatment with a PLK1-PBD inhibitor by immunofluorescent detection of phosphorylated Histone H3 (pH3), a marker which is only present in mitotic cells. PLK1-PBD inhibitors are expected to cause a dose-dependent increase in pH3-positive cells, which is reported as Mitotic Index (MI)—the percentage of cells which, at a given time, are positive for this mitotic mark. The following protocol has been used to measure MI: • 1. Plate HeLa cells at 10,000/well in 100 μL/well in clear flat-bottom 96-well plates and incubate overnight. • 2. Immediately prior to treatment, dilute compounds in medium in a 96-well round-bottom plate. Make up all compounds at 5 times final desired concentration on cells, and serially dilute 1:2 across the plate ensuring that there is 100 μL of each concentration (start with 200 μl of the top concentration on the left of the plate). […] Treat cells by adding 25 μL from the compound dilution plate to triplicate wells. • 4. Incubate cells with compound for 24 hours. • 5. After 24 hours, fixation and staining is carried out as follows: • 6. Dilute 37% formaldehyde in PBS to give a 12.95% solution by adding 3.5 mL formaldehyde to 6.5 mL of PBS. • 7. Add 50 μL of formaldehyde fixation solution directly to each well of cells (which already contain 125 μL medium). • 8. Incubate at room temp for 10 minutes. • 9. Remove fixative and add 100 μL/well PBS+0.1% Triton X-100 for 10 minutes. • 10. Aspirate and add 100 μL/well PBS+1% BSA. • 11. Aspirate and add 50 μL/well of primary antibody (anti-PH3 [1:2000]/anti-MPM2 [1:1000]) diluted in PBS+1% BSA. Incubate for 1 hour. • 12. Wash×2 with 100 μL/well PBS+1% BSA. • 13. Add 50 μL/well of secondary antibody plus Hoechst stain (anti-rabbit Alexafluor 488 [1:500]; anti-mouse Alexafluor 546 [1:500]+Hoechst 33342 [1:2500 final concentration=4 μg/mL])diluted in PBS+1% BSA. Incubate for 1 hour. • 14. Wash twice with 100 μL/well PBS+1% BSA. • 15. Aspirate and add 100 μL/well PBS. Plates can be stored at 4° C. in PBS for several weeks before scanning on the Cellomics Arrayscan. […] Scan on Cellomics using Target Activation Bioapplication. • 17. MI data emerging from the Cellomic Bioapplication can be used to plot MI versus compound concentration, and subsequently used to generate an EC50 value for each compound using an appropriate graphing/curve-fitting package such as GraphPad Prism.

Another assay has as its system wild-type HeLa cell line. Put plainly: Wild-type versus KRAS HeLa cell viability: wild-type KRAS transgene. The following applies: Homo sapiens; HeLa cells expressing wild-type KRAS, 72 hours; read-out: WT GI50. The protocol:
(§1) Assay to Measure the Effects of Compounds of the Invention on Wild-Type Versus KRAS HeLa Cell Viability
(§2) Identifying synthetic lethal interactions between targeted small molecule therapies and characterised oncogenic mutations is a goal of modern oncology drug discovery efforts. To this end, PLK1-PBD inhibitors were tested on HeLa cells engineered to inducibly express wild-type or oncogenic KrasG12V transgenes using the FLP-in/T-Rex system (Invitrogen). Cells were plated, and then treated with or without Doxycycline to induce transgene expression, and then treated with serially-diluted PBD inhibitors. After 72 hours of incubation, cell viability was assessed using the Cell Titre Blue reagent (Promega) and a BMG Pherastar plate reader. The effect of PBD inhibition on cell viability with either wild-type or oncogenic G12V KRAS was assessed using the graphing/curve-fitting packages in GraphPad Prism.

Another assay concerns KRAS G12V HeLa cell line. Put plainly: Wild-type versus KRAS HeLa cell viability: oncogenic KrasG12V transgene. The following applies: Homo sapiens; HeLa cells expressing KRAS G12V, 72 hours. The method, then:
as §1, §2

The test system of the next assay is HCT116 cells. In words: Effects on HCT116 colorectal cancer cell viability (cell titre blue, 72 hours). Particulars: Homo sapiens, HCT-116, HCT116 cell line.
Assay [1] concerns HCT116 cells (a mutant KRAS G-13D expressing cell line). In words: Drug resistance studies in HCT116 cells. The following applies: five times the half maximal growth inhibiting amount, twenty two days.

Take `CN(C)CCNC(=O)c1cccc(-c2ccc(-c3ccc(Br)cc3)n2-c2ccccc2C(F)(F)F)c1` [Example 2, 3-[5-(4-Bromophenyl)-1-[2-(trifluoromethyl)phenyl]pyrrol-2-yl]-N-[2-(dimethylamino)ethyl]benzamide Hydrochloride]: the “% mitotic cells” value with HeLa cells is 86%. Further, in the assay on HeLa cells, the EC50 is 860 nM. For the same compound, the figures for the GI50 in the assay with wild-type HeLa cell line and in the assay with KRAS G12V HeLa cell line were 180 nM and 50 nM, respectively.
As to `CN(C)CCNC(=O)c1ccc(-c2ccc(-c3ccc(Br)cc3)n2-c2ccccc2C(F)(F)F)cc1` [Example 9, 4-[5-(4-Bromophenyl)-1-[2-(trifluoromethyl)phenyl]pyrrol-2-yl]-N-[2-(dimethylamino)ethyl]benzamide Hydrochloride], the “% mitotic cells” value with HeLa cells is reported as 89%. Besides, in the assay on HeLa cells, the EC50 was determined as 190 nM. Also, the concentration for 50% growth inhibition (GI50) in the assay with HCT116 cells is 30 nM; with wild-type HeLa cell line, 50 nM; with KRAS G12V HeLa cell line it was 20 nM.
`CNCCNC(=O)c1cccc(-c2ccc(-c3ccc(Br)cc3)n2-c2ccccc2C(F)(F)F)c1` [Example 23]: in the assay on HeLa cells, the “% mitotic cells” value was determined as 79%. Moreover, the EC50 with HeLa cells came out at 740 nM. Also, the GI50 with HCT116 cells is 390 nM; with wild-type HeLa cell line, 240 nM; with KRAS G12V HeLa cell line, 80 nM.
Consider `CN(C)CCCNC(=O)c1cccc(-c2ccc(-c3ccc(Br)cc3)n2-c2ccccc2C(F)(F)F)c1` [Example 24], for which the “% mitotic cells” value in the assay with HeLa cells is reported as 77%. Further, the EC50 with HeLa cells amounted to 620 nM. The GI50 with HCT116 cells amounted to 490 nM; in the assay on wild-type HeLa cell line it was 260 nM; with KRAS G12V HeLa cell line, 80 nM.
Consider `CN(C)CCNC(=O)c1ccc(-c2ccc(-c3ccc(F)nc3)n2-c2ccccc2C(F)(F)F)cc1` [Example 42, hydrochloride], for which the 50% growth inhibitory concentration (GI50) worked out at 380 nM in the assay on HCT116 cells, 130 nM with wild-type HeLa cell line and 50 nM in the assay on KRAS G12V HeLa cell line.
For `COc1ccc(-c2ccc(-c3ccc(Br)cc3)n2-c2ccccc2C(F)(F)F)cc1C(=O)NCCN(C)C` [Example 53, hydrochloride], in that order: 560 nM, 340 nM and 220 nM.
Turning to `CN(C)CCNC(=O)c1cccc(-c2ccc(-c3ccc(Br)cc3)n2-c2ccccc2N)c1` [Example 56, hydrochloride], the GI50 amounted to 2710 nM in the assay with HCT116 cells, 2190 nM with wild-type HeLa cell line and 2520 nM in the assay with KRAS G12V HeLa cell line.
`CN(C)CCNC(=O)c1ccc(-c2ccc(-c3ccc(C#N)cc3)n2-c2ccccc2C(F)(F)F)cc1` [Example 57]: the GI50 was 60 nM in the assay with HCT116 cells, 50 nM with wild-type HeLa cell line and 30 nM in the assay on KRAS G12V HeLa cell line.
As to `CN(C)CCCNC(=O)c1ccc(-c2ccc(-c3ccc(Cl)cc3)n2-c2ccccc2C(F)(F)F)cc1` [Example 58], the GI50 came out at 30 nM in the assay on HCT116 cells, 30 nM with wild-type HeLa cell line and 20 nM in the assay on KRAS G12V HeLa cell line.
For the compound `CN(C)CCNC(=O)c1ccc(-c2ccc(-c3ccc(F)cc3)n2-c2ccccc2C(F)(F)F)cc1` [Example 59, hydrochloride], the GI50 with HCT116 cells came to 50 nM; in the assay with wild-type HeLa cell line it was 10 nM; in the assay on KRAS G12V HeLa cell line, 8 nM.
Consider `CN(C)CCCNC(=O)c1ccc(-c2ccc(-c3ccc(F)cc3)n2-c2ccccc2C(F)(F)F)cc1` [Example 60, hydrochloride], for which the GI50 turned out to be 60 nM in the assay with HCT116 cells, 30 nM in the assay on wild-type HeLa cell line and 10 nM in the assay with KRAS G12V HeLa cell line.
For `CN(C)CCNC(=O)c1ccc(-c2ccc(-c3ccc(Cl)cc3)n2-c2ccccc2C(F)(F)F)nc1` [Example 61, hydrochloride], the values for the GI50 in the assay with HCT116 cells, in the assay on wild-type HeLa cell line and with KRAS G12V HeLa cell line were 60 nM, 20 nM and 5 nM, respectively.
Consider `CN(C)CCCNC(=O)c1ccc(-c2ccc(-c3ccc(Cl)cc3)n2-c2ccccc2C(F)(F)F)nc1` [Example 62, hydrochloride], for which the results for the GI50 with HCT116 cells, in the assay with wild-type HeLa cell line and in the assay on KRAS G12V HeLa cell line were 120 nM, 20 nM and 8 nM, respectively.
For `CN1CC[C@@H](NC(=O)c2ccc(-c3ccc(-c4ccc(Cl)cc4)n3-c3ccccc3C(F)(F)F)cc2)C1` [Example 70, hydrochloride], the concentration for 50% growth inhibition (GI50) with HCT116 cells stood at 20 nM; with wild-type HeLa cell line, 5 nM; in the assay on KRAS G12V HeLa cell line it was 3 nM.
As for `CN1CC[C@H](NC(=O)c2ccc(-c3ccc(-c4ccc(Cl)cc4)n3-c3ccccc3C(F)(F)F)cc2)C1` [Example 71, hydrochloride], the figures for the GI50 with HCT116 cells, in the assay on wild-type HeLa cell line and in the assay on KRAS G12V HeLa cell line were 20 nM, 10 nM and 5 nM, respectively.
The matching figures for `CN(C)CCNC(=O)c1ccc(-n2ncc(-c3ccc(Cl)cc3)c2-c2ccccc2C(F)(F)F)cc1` [Example 82, 4-[4-(4-Chlorophenyl)-5-[2-(trifluoromethyl)phenyl]pyrazol-1-yl]-N-[2-(dimethylamino)ethyl]-benzamide Hydrochloride]: 40 nM, 30 nM and 10 nM.
Regarding `O=C(NCCN1CCNCC1)c1ccc(-c2ccc(-c3ccc(Cl)cc3)n2-c2ccccc2C(F)(F)F)cc1` [Example 87, hydrochloride], the results for the GI50 with HCT116 cells, in the assay on wild-type HeLa cell line and with KRAS G12V HeLa cell line were 60 nM, 20 nM and 8 nM, respectively.
In the case of `CN(C)CCNC(=O)Cc1ccc(-c2ccc(-c3ccc(Cl)cc3)n2-c2ccccc2C(F)(F)F)cc1` [Example 91, hydrochloride], the GI50 was 10 nM in the assay on HCT116 cells, 10 nM with wild-type HeLa cell line and 5 nM in the assay with KRAS G12V HeLa cell line.
For the compound `CC[C@@H]1C(=O)N(C)c2cnc(Nc3ccc(C(=O)NC4CCN(C)CC4)cc3OC)nc2N1C1CCCC1` [Example B12536, 4-[[(7R)-8-cyclopentyl-7-ethyl-5,6,7,8-tetrahydro-5-methyl-6-oxo-2-pteridinyl]amino]-3-methoxy-N-(1-methyl-4-piperidinyl)benzamide, reference compound], the “formation of drug-resistant colonies” value in assay [1] was “drug-resistant colonies were formed”.

The term EC50 denotes the concentration needed to bring the measured effect to its halfway point. For orientation: GI50 means the concentration giving 50% growth inhibition.

The values above are taken from patent publication US11208405B2, “Pyrrole derivatives as PLK1 inhibitors” (SENTINEL ONCOLOGY LIMITED, priority 2017, dated 2021).
